# Test results from patent US11851440B2, “Modulators of eukaryotic initiation factor 2B, compositions and methods” (Denali Therapeutics Inc., priority 2017, dated 2023).
# Test system: ISR pathway (ATF4 translation)
# Assay: ATF4 Nano Luciferase reporter integrated stress response (ISR) assay in H4 ATF4-NLuc cells
# Conditions: Homo sapiens, H4 ATF4-NLuc (clone 17) cells; compound 30 minutes, then 50 um sodium arsenite for 6 hours; luminescence readout
row,IC50,SMILES
1,0.0382 µM,O=C(COCCOC(F)(F)F)NC12CC(n3cnc(-c4ccc(Cl)c(F)c4)c3)(C1)C2 [Example 152]
2,0.0092 µM,"O=C(COc1ccc(Cl)cc1)NC12CC(c3nnc([C@H]4C[C@@H](OC(F)(F)F)C4)o3)(C1)C2 [Example 3, 2-(4-chlorophenoxy)-N-[3-[5-[cis-3-(trifluoromethoxy)cyclobutyl]-1,3,4-oxadiazol-2-yl]-1-bicyclo[1.1.1]pentanyl]acetamide]"

# Same assay, conditions: Homo sapiens, read-out: Activity (IC50), H4 ATF4-NLuc (clone 17) cells; compound 30 minutes, then 50 um sodium arsenite for 6 hours; luminescence readout
row,SMILES,IC50
1,O=C(CO[C@H]1C[C@@H](OC(F)(F)F)C1)NC12CC(N3CCN(c4ccc(Cl)cc4)C3=O)(C1)C2 [Example 264],< 1 µM
2,"O=C(COc1ccc(Cl)c(F)c1)NC12CC(n3cnc(C4CN(CC(F)(F)F)C4)c3)(C1)C2 [Example 67, 2-(4-chloro-3-fluoro-phenoxy)-N-[3-[4-[1-(2,2,2-trifluoroethyl)azetidin-3-yl]imidazol-1-yl]-1-bicyclo[1.1.1]pentanyl]acetamide]",< 1 µM
3,"O=C(COc1ccc(Cl)cc1)NC12CC(c3nnc(C4CCCO4)o3)(C1)C2 (stereo not shown) [Example 2, 2-(4-Chlorophenoxy)-N-[3-(5-tetrahydrofuran-2-yl-1,3,4-oxadiazol-2-yl)-1-bicyclo[1.1.1]pentanyl]acetamide]",1 to 10 µM
4,"N#C[C@H]1C[C@@H](n2cc(C34CC(NC(=O)COc5ccc(Cl)c(F)c5)(C3)C4)nn2)C1 (relative stereo) [Example 35, 2-(4-chloro-3-fluorophenoxy)-N-(3-(1-((cis)-3-cyanocyclobutyl)-1H-1,2,3-triazol-4-yl)bicyclo[1.1.1]pentan-1-yl)acetamide]",< 1 µM
5,O=C(COc1ccc(F)c(F)c1)NC12CC(n3cnc([C@H]4C[C@H](OC(F)(F)F)C4)c3)(C1)C2 [Example 144],< 1 µM
6,O=C(COCCOC(F)(F)F)NC12CC(n3cnc(-c4ccc(Cl)c(F)c4)c3)(C1)C2 [Example 152],< 1 µM
7,"O=C(COc1ccc(Cl)c(F)c1)NC12CC(n3cnc(C4CCC4)c3)(C1)C2 [Example 39, 2-(4-chloro-3-fluoro-phenoxy)-N-[3-(4-cyclobutylimidazol-1-yl)-1-bicyclo[1.1.1]pentanyl]acetamide]",< 1 µM
8,"O=C(COc1ccc(Cl)c(F)c1)NC12CC(c3c[nH]nn3)(C1)C2 [Example 32, N-(3-(1H-1,2,3-triazol-4-yl)bicyclo[1.1.1]pentan-1-yl)-2-(4-chloro-3-fluorophenoxy)acetamide]",< 1 µM
9,O=C(COc1ccc(Cl)c(F)c1)NC12CC(c3cn(C4CC(O)C4)nn3)(C1)C2 (stereo not shown) [Example 57],1 to 10 µM
10,O=C(CO[C@H]1C[C@@H](OC(F)(F)F)C1)NC12CC(c3cc(-c4ccc5c(c4)OC(F)(F)O5)no3)(C1)C2 [Example 258],< 1 µM
11,"N#C[C@H]1C[C@@H](n2ncc(C34CC(NC(=O)COc5ccc(Cl)c(F)c5)(C3)C4)n2)C1 (relative stereo) [Example 36, 2-(4-chloro-3-fluorophenoxy)-N-(3-(2-((cis)-3-cyanocyclobutyl)-2H-1,2,3-triazol-4-yl)bicyclo[1.1.1]pentan-1-yl)acetamide]",< 1 µM
12,"CC(C)(C)OC(=O)N1CCC(c2nnc(C34CC(NC(=O)COc5ccc(Cl)c(F)c5)(C3)C4)o2)C1 (stereo not shown) [Example 14, tert-butyl 3-[5-[3-[[2-(4-chloro-3-fluoro-phenoxy)acetyl]amino]-1-bicyclo[1.1.1]pentanyl]-1,3,4-oxadiazol-2-yl]pyrrolidine-1-carboxylate]",< 1 µM
13,"N#CC1CC([C@H]2CN(C34CC(NC(=O)COc5ccc(Cl)c(F)c5)(C3)C4)C(=O)O2)C1 (single isomer, unassigned) [Example 218]",< 1 µM
14,"O=C(COc1ccc(Cl)c(F)c1)NC12CC(c3nnc(CN4CC(C(F)(F)F)C4)o3)(C1)C2 [Example 126, 2-(4-chloro-3-fluoro-phenoxy)-N-[3-[5-[[3-(trifluoromethyl)azetidin-1-yl]methyl]-1,3,4-oxadiazol-2-yl]-1-bicyclo[1.1.1]pentanyl]acetamide]",< 1 µM
15,COC(=O)c1cc(C(F)(F)F)ccc1-c1cn(C23CC(NC(=O)CO[C@H]4C[C@@H](OC(F)(F)F)C4)(C2)C3)cn1 [Example 273],< 1 µM
16,"O=C(COc1ccc(Cl)c(F)c1)NC12CC(c3nnc(C4CN(CC(F)(F)F)CCO4)o3)(C1)C2 (stereo not shown) [Example 127, 2-(4-chloro-3-fluoro-phenoxy)-N-[3-[5-[4-(2,2,2-trifluoroethyl)morpholin-2-yl]-1,3,4-oxadiazol-2-yl]-1-bicyclo[1.1.1]pentanyl]acetamide]",< 1 µM
17,O=C(COc1ccc(Cl)c(F)c1)NC12CC(NCCO[C@H]3C[C@@H](n4nccn4)C3)(C1)C2 [Example 197],< 1 µM
18,"O=C(COc1ccc(Cl)cc1)NC12CC(n3cnc([C@H]4C[C@H](OC(F)(F)F)C4)c3)(C1)C2 [Example 69, 2-(4-chlorophenoxy)-N-[3-[4-[3-trans-(trifluoromethoxy)cyclobutyl]imidazol-1-yl]-1-bicyclo[1.1.1]pentanyl]acetamide]",< 1 µM
19,O=C(COc1ccc(Cl)c(F)c1)NC12CC(N3CCN(CC4CCC4)C3=O)(C1)C2 [Example 215],1 to 10 µM
20,"O=C(COc1ccc(Cl)c(F)c1)NC12CC(c3nnc(COC(F)(F)F)o3)(C1)C2 [Example 45, 2-(4-chloro-3-fluoro-phenoxy)-N-[1-[5-(trifluoromethoxymethyl)-1,3,4-oxadiazol-2-yl]-3-bicyclo[1.1.1]pentanyl]acetamide]",< 1 µM
21,O=C(NC12CC(c3nnc(-c4ccc(Cl)c(F)c4)o3)(C1)C2)[C@H]1CC[C@H](COC(F)(F)F)CC1 [Example 235],< 1 µM
22,"O=C(COc1ccc(Cl)cc1)NC12CC(c3nnc(COC4CCC4)o3)(C1)C2 [Example 5, 2-(4-Chlorophenoxy)-N-[1-[5-(cyclobutoxymethyl)-1,3,4-oxadiazol-2-yl]-3-bicyclo[1.1.1]pentanyl]acetamide]",< 1 µM
23,O=C(COc1ccc(F)c(F)c1)NC12CC(n3cnc([C@H]4C[C@@H](OC(F)(F)F)C4)c3)(C1)C2 [Example 143],< 1 µM
24,"O=C(COc1ccc(Cl)c(F)c1)NC12CC(N3C[C@@H](C4CC(OC(F)(F)F)C4)OC3=O)(C1)C2 (single isomer, unassigned) [Example 208]",< 1 µM
25,"O=C(COc1ccc(Cl)c(F)c1)NC12CC(c3nnc(CC4CCC4)o3)(C1)C2 [Example 38, 2-(4-chloro-3-fluoro-phenoxy)-N-[1-[5-(cyclobutylmethyl)-1,3,4-oxadiazol-2-yl]-3-bicyclo[1.1.1]pentanyl]acetamide]",< 1 µM
26,"O=C(COc1ccc(Cl)c(F)c1)NC12CC(c3cnn(C4CCC4)n3)(C1)C2 (single isomer, unassigned) [Example 19, 2-(4-Chloro-3-fluoro-phenoxy)-N-[1-(2-cyclobutyltriazol-4-yl)-3-bicyclo[1.1.1]pentanyl]acetamide]",< 1 µM

# Other lines, results leading:
row,IC50,SMILES
1,< 1 µM,O=C(NC12CC(c3nnc([C@H]4C[C@@H](OC(F)(F)F)C4)o3)(C1)C2)c1nc2cc(Cl)ccn2n1 [Example 176]
2,< 1 µM,O=C(NC12CC(c3nnc([C@H]4C[C@@H](OC(F)(F)F)C4)o3)(C1)C2)c1cn2ccc(F)cc2n1 [Example 170]
3,< 1 µM,O=C(NC12CC(c3nnc([C@H]4C[C@@H](OC(F)(F)F)C4)o3)(C1)C2)c1cc2ccc(Cl)n2cn1 [Example 181]
4,< 1 µM,O=C(COc1ccc(Cl)c(CO)c1)NC12CC(c3nnc([C@H]4C[C@@H](OC(F)(F)F)C4)o3)(C1)C2 [Example 256]
5,< 1 µM,"O=C(COc1ccc(Cl)c(F)c1)NC12CC(c3nnc([C@@H]4CC[C@H](COC(F)(F)F)O4)o3)(C1)C2 [Example 124, 2-(4-chloro-3-fluoro-phenoxy)-N-[3-[5-[5-cis-(trifluoromethoxymethyl)tetrahydrofuran-2-yl]-1,3,4-oxadiazol-2-yl]-1-bicyclo[1.1.1]pentanyl]acetamide]"
6,< 1 µM,"O=C(COc1ccc(Cl)c(F)c1)NC12CC(c3nnc([C@H]4C[C@H](C(F)(F)F)C4)o3)(C1)C2 [Example 44, 2-(4-chloro-3-fluoro-phenoxy)-N-[1-[5-trans-[3-(trifluoromethyl)cyclobutyl]-1,3,4-oxadiazol-2-yl]-3-bicyclo[1.1.1]pentanyl]acetamide]"
7,< 1 µM,O=C(CO[C@H]1C[C@@H](OC(F)(F)F)C1)NC12CC(c3cn(-c4ccc(Cl)c(F)c4)cn3)(C1)C2 [Example 228]
8,1 to 10 µM,O=C(NC12CC(c3nnc([C@H]4C[C@@H](OC(F)(F)F)C4)o3)(C1)C2)c1cn2cc(F)ccc2n1 [Example 180]
9,< 1 µM,"O=C(COc1ccc(Cl)cc1)NC12CC(c3nnc([C@H]4C[C@@H](OC(F)(F)F)C4)o3)(C1)C2 [Example 3, 2-(4-chlorophenoxy)-N-[3-[5-[cis-3-(trifluoromethoxy)cyclobutyl]-1,3,4-oxadiazol-2-yl]-1-bicyclo[1.1.1]pentanyl]acetamide]"
10,< 1 µM,"O=C(COc1ccc(Cl)c(F)c1)NC12CC(c3nnc(C4C[C@H]4COC(F)(F)F)o3)(C1)C2 (mixture of isomers) [Example 80, 2-(4-chloro-3-fluoro-phenoxy)-N-[3-[5-[2-trans-(trifluoromethoxymethyl)cyclopropyl]-1,3,4-oxadiazol-2-yl]-1-bicyclo[1.1.1]pentanyl]acetamide]"
11,< 1 µM,O=C(NC12CC(c3nnc([C@H]4C[C@@H](OC(F)(F)F)C4)o3)(C1)C2)c1nc2cc(Cl)ccc2s1 [Example 175]
12,1 to 10 µM,"O=C(COC1CN(CC(F)(F)F)C1)NC12CC(c3nnc([C@H]4C[C@@H](OC(F)(F)F)C4)o3)(C1)C2 [Example 116, 2-[1-(2,2,2-trifluoroethyl)azetidin-3-yl]oxy-N-[3-[5-[3-cis-(trifluoromethoxy)cyclobutyl]-1,3,4-oxadiazol-2-yl]-1-bicyclo[1.1.1]pentanyl]acetamide]"
13,< 1 µM,O=C(COc1ccc(Cl)cc1)NC12CC(c3nnn([C@H]4C[C@@H](OC(F)(F)F)C4)n3)(C1)C2 [Example 242]
14,< 1 µM,O=C(CO[C@H]1C[C@@H](OC(F)(F)F)C1)NC12CC(c3nc(-c4ccc(Cl)c(F)c4)no3)(C1)C2 [Example 201]
15,1 to 10 µM,"O=C(COC1CC2(CC2)C1)NC12CC(c3nnc([C@H]4C[C@@H](OC(F)(F)F)C4)o3)(C1)C2 [Example 115, 2-spiro[2.3]hexan-5-yloxy-N-[3-[5-[3-cis-(trifluoromethoxy)cyclobutyl]-1,3,4-oxadiazol-2-yl]-1-bicyclo[1.1.1]pentanyl]acetamide]"
